# According to US6727232B2, “Nucleoside peptide antibiotics of AA-896” (Wyeth Holdings Corporation, priority 2001, dated 2004):
# Like-named read-outs stand apart in the source and are kept apart here.
# Assays:
# Assay in all cases: Broth dilution MIC
# Format in all cases: cell-based
# CNS GC 4537 = conditions: read-out: Antimicrobial Activity (MIC)
# Description: (§1) The in vitro antibacterial activity of Example 1 through Example 20 is determined against a spectrum of Gram-positive and Gram-negative bacteria by a standard broth dilution method. Serial dilution of the compounds are made in Mueller-Hinton broth and inoculated with a bacterial suspension. The lowest concentration of compound that inhibited the growth of a bacterial strain after 18 hours of incubation at 35° C. is reported as the minimal inhibitory concentration (MIC) for that strain.
# CNS GC 4538 = conditions: read-out: Antimicrobial Activity (MIC)
# Description: as §1
# CNS GC 4547 = conditions: read-out: Antimicrobial Activity (MIC)
# Description: as §1
# E. cloacae GC 3783 = conditions: Enterobacter cloacae, read-out: Antimicrobial Activity (MIC)
# Description: as §1
# E. coli GC 2203 = conditions: Escherichia coli, read-out: Antimicrobial Activity (MIC)
# Description: as §1
# E. coli GC 3226 = conditions: Escherichia coli, read-out: Antimicrobial Activity (MIC)
# Description: as §1
# E. coli GC 4559 = conditions: Escherichia coli, read-out: Antimicrobial Activity (MIC)
# Description: as §1
# E. coli GC 4560 = conditions: Escherichia coli, GC4560, 18 h, read-out: Antimicrobial Activity (MIC)
# Description: as §1
# E. faecalis GC 2242 = conditions: Enterococcus faecalis, read-out: Antimicrobial Activity (MIC)
# Description: as §1
# E. faecalis GC 4555 = conditions: Enterococcus faecalis, read-out: Antimicrobial Activity (MIC)
# Description: as §1
# E. faecalis GC 842 = conditions: Enterococcus faecalis, read-out: Antimicrobial Activity (MIC)
# Description: as §1
# K. pneumoniae GC 4534 = conditions: Klebsiella pneumoniae, read-out: Antimicrobial Activity (MIC)
# Description: as §1
# M. morganii GC 4531 = conditions: Morganella morganii, read-out: Antimicrobial Activity (MIC)
# Description: as §1
# P. aeruginosa GC 2214 = conditions: Pseudomonas aeruginosa, read-out: Antimicrobial Activity (MIC)
# Description: as §1
# P. aeruginosa GC 4532 = conditions: Pseudomonas aeruginosa, read-out: Antimicrobial Activity (MIC)
# Description: as §1
# P. rettgeri GC 4530 = conditions: Providencia rettgeri, read-out: Antimicrobial Activity (MIC)
# Description: as §1
# S. aureus GC 1131 = conditions: Staphylococcus aureus, read-out: Antimicrobial Activity (MIC)
# Description: as §1
# S. aureus GC 2216 = conditions: Staphylococcus aureus, read-out: Antimicrobial Activity (MIC)
# Description: as §1
# S. aureus GC 4536 = conditions: Staphylococcus aureus, read-out: Antimicrobial Activity (MIC)
# Description: as §1
# S. marcescens GC 4077 = conditions: Serratia marcescens, read-out: Antimicrobial Activity (MIC)
# Description: as §1
# [1] = CNS GC 4537, Mueller-Hinton broth, 18 hours at 35° C.
# [2] = CNS GC 4538, Mueller-Hinton broth, 18 hours at 35° C.
# [3] = CNS GC 4547, Mueller-Hinton broth, 18 hours at 35° C.
# [4] = GC3783, E. cloacae GC 3783, Mueller-Hinton broth, 18 hours at 35° C.
# [5] = GC2203, E. coli GC 2203, Mueller-Hinton broth, 18 hours at 35° C.
# [6] = GC3226, E. coli GC 3226, Mueller-Hinton broth, 18 hours at 35° C.
# [7] = GC4559, E. coli GC 4559, Mueller-Hinton broth, 18 hours at 35° C.
# [8] = GC2242, E. faecalis GC 2242, Mueller-Hinton broth, 18 hours at 35° C.
# [9] = GC4555, E. faecalis GC 4555, Mueller-Hinton broth, 18 hours at 35° C.
# [10] = GC842, E. faecalis GC 842, Mueller-Hinton broth, 18 hours at 35° C.
# [11] = GC4534, K. pneumoniae GC 4534, Mueller-Hinton broth, 18 hours at 35° C.
# [12] = GC4531, M. morganii GC 4531, Mueller-Hinton broth, 18 hours at 35° C.
# [13] = GC2214, P. aeruginosa GC 2214, Mueller-Hinton broth, 18 hours at 35° C.
# [14] = GC4532, P. aeruginosa GC 4532, Mueller-Hinton broth, 18 hours at 35° C.
# [15] = GC4530, P. rettgeri GC 4530, Mueller-Hinton broth, 18 hours at 35° C.
# [16] = GC1131, S. aureus GC 1131, Mueller-Hinton broth, 18 hours at 35° C.
# [17] = GC2216, S. aureus GC 2216, Mueller-Hinton broth, 18 hours at 35° C.
# [18] = GC4536, S. aureus GC 4536, Mueller-Hinton broth, 18 hours at 35° C.
# [19] = GC4077, S. marcescens GC 4077, Mueller-Hinton broth, 18 hours at 35° C.
Structure (SMILES),MIC (CNS GC 4537; [1]) [µg/mL],MIC (CNS GC 4538; [2]) [µg/mL],MIC (CNS GC 4547; [3]) [µg/mL],MIC (E. cloacae GC 3783; [4]) [µg/mL],MIC (E. coli GC 2203; [5]) [µg/mL],MIC (E. coli GC 3226; [6]) [µg/mL],MIC (E. coli GC 4559; [7]) [µg/mL],MIC (E. coli GC 4560) [µg/mL],MIC (E. faecalis GC 2242; [8]) [µg/mL],MIC (E. faecalis GC 4555; [9]) [µg/mL],MIC (E. faecalis GC 842; [10]) [µg/mL],MIC (K. pneumoniae GC 4534; [11]) [µg/mL],MIC (M. morganii GC 4531; [12]) [µg/mL],MIC (P. aeruginosa GC 2214; [13]) [µg/mL],MIC (P. aeruginosa GC 4532; [14]) [µg/mL],MIC (P. rettgeri GC 4530; [15]) [µg/mL],MIC (S. aureus GC 1131; [16]) [µg/mL],MIC (S. aureus GC 2216; [17]) [µg/mL],MIC (S. aureus GC 4536; [18]) [µg/mL],MIC (S. marcescens GC 4077; [19]) [µg/mL],also measured
"CO[C@H]1C(O[C@H](C(NCCCNC(=O)C(NC(=O)C(NC(=O)NC(C(=O)O)C(C)C)C2CCNC(=N)N2)C(O)C(C)C)C(=O)O)[C@H]2O[C@@H](n3ccc(=O)[nH]c3=O)[C@H](O)[C@@H]2O)O[C@H](CNCc2ccccc2)[C@@H]1O (stereo partly drawn) [Example 20A, 16-((R)-({(3R,4S,5R)-5-[(Benzylamino)methyl]-4-hydroxy-3-methoxytetrahydro-2-furanyl}oxy){(2S,3S,4R,5R)-5-[2,4-dioxo-3,4-dihydro-1 (2H)-pyrimidinyl]-3,4-dihydroxytetrahydro-2-furanyl}methyl)-9-(1-hydroxy-2-methylpropyl)-6-(2-iminohexahydro-4-pyrimidinyl)-2-isopropyl-4,7,10-trioxo-3,5,8,11,15-pentaazaheptadecane-1,17-dioic acid]",> 32,> 32,> 32,> 32,> 32,> 32,> 32,> 32,> 32,> 32,> 32,> 32,> 32,> 32,> 32,> 32,> 32,> 32,> 32,> 32,
"CO[C@H]1C(O[C@H](C(C(=O)O)N(CCCCCCCCCCCCN2CCOCC2)CCCNC(=O)C(NC(=O)C(NC(=O)NC(C(=O)O)C(C)C)C2CCNC(=N)N2)C(O)C(C)C)[C@H]2O[C@@H](n3ccc(=O)[nH]c3=O)[C@H](O)[C@@H]2O)O[C@H](CN)[C@@H]1O (stereo partly drawn) [Example 8, 16-((R)-{[(3R,4S,5R)-5-(Aminomethyl)-4-hydroxy-3-methoxytetrahydro-2-furanyl]oxy}{(2S,3S,4R,5R)-5-[2,4-dioxo-3,4-dihydro-1 (2H)-pyrimidinyl]-3,4-dihydroxytetrahydro-2-furanyl}methyl)-9-(1-hydroxy-2-methylpropyl)-6-(2-iminohexahydro-4-pyrimidinyl)-2-isopropyl-15-[12-(4-morpholinyl)dodecyl]-4,7,10-trioxo-3,5,8,11,15-pentaazaheptadecane-1,17-dioic Acid]",,,,,,,,> 32,,,,,,,,,,,,,"MIC (CNS GC 4537; 18 h): > 32 µg/mL; MIC (CNS GC 4538; 18 h): > 32 µg/mL; MIC (CNS GC 4547; 18 h): > 32 µg/mL; MIC (E. cloacae GC 3783; GC3783, 18 h): > 32 µg/mL; MIC (E. coli GC 2203; GC2203, 18 h): > 32 µg/mL; MIC (E. coli GC 3226; GC3226, 18 h): > 32 µg/mL; MIC (E. coli GC 4559; GC4559, 18 h): > 32 µg/mL; MIC (E. faecalis GC 2242; GC2242, 18 h): > 32 µg/mL; MIC (E. faecalis GC 4555; GC4555, 18 h): > 32 µg/mL; MIC (E. faecalis GC 842; GC842, 18 h): > 32 µg/mL; MIC (K. pneumoniae GC 4534; GC4534, 18 h): > 32 µg/mL; MIC (M. morganii GC 4531; GC4531, 18 h): > 32 µg/mL; MIC (P. aeruginosa GC 2214; GC2214, 18 h): > 32 µg/mL; MIC (P. aeruginosa GC 4532; GC4532, 18 h): > 32 µg/mL; MIC (P. rettgeri GC 4530; GC4530, 18 h): > 32 µg/mL; MIC (S. aureus GC 1131; GC1131, 18 h): > 32 µg/mL; MIC (S. aureus GC 2216; GC2216, 18 h): > 32 µg/mL; MIC (S. aureus GC 4536; GC4536, 18 h): > 32 µg/mL; MIC (S. marcescens GC 4077; GC4077, 18 h): > 32 µg/mL"
"CCCCCCN1C(=O)C([C@@H](OC2O[C@H](CN)[C@H](O)[C@H]2OC)[C@H]2O[C@@H](n3ccc(=O)[nH]c3=O)[C@H](O)[C@@H]2O)N(CCCNC(=O)C(NC(=O)C(NC(=O)NC(C(=O)O)C(C)C)C2CCNC(=N)N2)C(O)C(C)C)C1=O (stereo partly drawn) [Example 3, 14-[5-((R)-{[(3R,4S,5R)-5-(Aminomethyl)-4-hydroxy-3-methoxytetrahydro-2-furanyl]oxy}{(2S,3S,4R,5R)-5-[2,4-dioxo-3,4-dihydro-1 (2H)-pyrimidinyl]-3,4-dihydroxytetrahydro-2-furanyl}methyl)-3-hexyl-2,4-dioxo-1-imidazolidinyl]-9-(1-hydroxy-2-methylpropyl)-6-(2-iminohexahydro-4-pyrimidinyl)-2-isopropyl-4,7,10-trioxo-3,5,8,11-tetraazatetradecan-1-oic acid]",> 32,> 32,> 32,> 32,> 32,> 32,> 32,32,> 32,> 32,> 32,> 32,> 32,> 32,> 32,> 32,> 32,> 32,> 32,> 32,
"CCCCCN(CCCNC(=O)C(NC(=O)C(NC(=O)NC(C(=O)O)C(C)C)C1CCNC(=N)N1)C(O)C(C)C)C(C(=O)O)[C@@H](OC1O[C@H](CN)[C@H](O)[C@H]1OC)[C@H]1O[C@@H](n2ccc(=O)[nH]c2=O)[C@H](O)[C@@H]1O (stereo partly drawn) [Example 9, 16-((R)-{[(3R,4S,5R)-5-(Aminomethyl)-4-hydroxy-3-methoxytetrahydro-2-furanyl]oxy}{(2S,3S,4R,5R)-5-[2,4-dioxo-3,4-di hydro-1 (2H)-pyrimidinyl]-3,4-dihydroxytetrahydro-2-furanyl}methyl)-9-(1-hydroxy-2-methylpropyl)-6-(2-iminohexahydro-4-pyrimidinyl)-2-isopropyl-4,7,10-trioxo-15-pentyl-3,5,8,11,15-pentaazaheptadecane-1,17-dioic Acid]",> 32,> 32,> 32,> 32,> 32,> 32,> 32,32,> 32,> 32,> 32,> 32,> 32,> 32,> 32,> 32,> 32,> 32,> 32,> 32,
